Measurements published in patent US12565497B2 (Hoffmann-La Roche Inc., priority 2020, dated 2026).

Target: Recombinant human Mat2a (Homo sapiens (Human), UniProt P31153)
Assay: Determination of Mat2A activity (384 well absorbance-based assay, Biomol Green)
Format: biochemical
Details: 12.5 nM Mat2A, 100 μM ATP and Methionine, 2% DMSO, 120 minutes at RT, absorbance at 635 nm; read-out: MAT2A_LEC IC50 (uM) (Num)
Procedure: Determination of Mat2A Activity
Measurement of Mat2A inhibition is performed in 384 well format absorbance-based assay. Recombinant human Mat2a (12.5 nM) and serial diluted compounds in DMSO (range of concentrations from 10 μM to 508 pM) or controls (DMSO) are incubated for 15 minutes at room temperature (RT) in assay buffer containing 50 mM HEPES pH 7.5, 50 mM KCl, 50 mM MgCl2, 0.01%Tween 20 and 10 mM DTT. The reaction is initiated by the addition of the combined substrates ATP and Methionine, each at a final concentration of 100 μM. Final assay condition are 12.5 nM Mat2A, 100 μM ATP and Methionine Substrates and 2% DMSO. After 120 minutes of incubation at RT, the reaction is stopped by the addition of Biomol Green. The absorbance signal is measured at λ=635 nm with a multiplate reader (BMG Pherastar reader or equivalent) after 30 min of equilibration at RT.

Recombinant human Mat2a, sequence (P31153 whole entry): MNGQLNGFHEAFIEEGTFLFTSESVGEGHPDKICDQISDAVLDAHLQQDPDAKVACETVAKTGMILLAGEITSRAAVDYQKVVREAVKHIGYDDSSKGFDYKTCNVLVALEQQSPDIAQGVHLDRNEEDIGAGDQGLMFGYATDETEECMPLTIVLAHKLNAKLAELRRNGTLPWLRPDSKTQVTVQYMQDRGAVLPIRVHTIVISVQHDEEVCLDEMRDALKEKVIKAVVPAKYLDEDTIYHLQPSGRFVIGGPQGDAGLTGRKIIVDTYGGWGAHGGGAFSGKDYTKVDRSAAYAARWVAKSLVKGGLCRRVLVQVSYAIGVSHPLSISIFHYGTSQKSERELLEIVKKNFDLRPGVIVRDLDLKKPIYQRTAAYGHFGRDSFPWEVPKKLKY

SMILES | IC50
Cc1cc(-c2nc(Cl)cc3[nH]nc(C4CC4)c23)ccc1S(C)(=O)=O [Example 34, 6-chloro-3-cyclopropyl-4-(3-methyl-4-methylsulfonylphenyl)-1H-pyrazolo[4,3-c]pyridine] | < 0.013 µM
Cc1cc(-c2nccc3[nH]nc(OC(F)F)c23)ccc1S(=O)(=O)C1COC1 [Example 35, 3-(difluoromethoxy)-4-[3-methyl-4-(oxetan-3-ylsulfonyl)phenyl]-1H-pyrazolo[4,3-c]pyridine] | 0.12 µM
Cc1cc(-c2nccc3[nH]nc(OC(F)F)c23)ccc1S(=O)(=O)CCO [Example 36, 2-[4-[3-(difluoromethoxy)-1H-pyrazolo[4,3-c]pyridin-4-yl]-2-methyl-phenyl]sulfonylethanol] | 0.051 µM
Cc1cc(-c2nccc3[nH]nc(OC(F)F)c23)ccc1S(=O)(=O)C1(C)CC1 [Example 37, 3-(difluoromethoxy)-4-[3-methyl-4-(1-methylcyclopropyl)sulfonyl-phenyl]-1H-pyrazolo[4,3-c]pyridine] | 0.1 µM
COCS(=O)(=O)c1ccc(-c2nccc3[nH]nc(OC(F)F)c23)cc1C [Example 38, 3-(difluoromethoxy)-4-[4-(methoxymethylsulfonyl)-3-methyl-phenyl]-1H-pyrazolo[4,3-c]pyridine] | 0.021 µM
COc1ncc2[nH]nc(C(F)(F)F)c2c1-c1ccc(S(C)(=O)=O)c(C)c1 [Example 39, 5-methoxy-4-(3-methyl-4-(methylsulfonyl)phenyl)-3-(trifluoromethyl)-1H-pyrazolo[3,4-c]pyridine] | < 0.013 µM
Cc1cc(-c2nccc3[nH]cc(C(F)(F)F)c23)ccc1S(C)(=O)=O [Example 40, 4-(3-methyl-4-(methylsulfonyl)phenyl)-3-(trifluoromethyl)-1H-pyrrolo[3,2-c]pyridine] | 0.029 µM
COCc1ncc2[nH]nc(C3CC3)c2c1-c1ccc(S(C)(=O)=O)c(C)c1 [Example 41, 3-cyclopropyl-5-(methoxymethyl)-4-(3-methyl-4-(methylsulfonyl)phenyl)-1H-pyrazolo[3,4-c]pyridine] | 0.14 µM
CCS(=O)(=O)c1ccc(-c2c(C#N)ncc3[nH]nc(C4CC4)c23)cc1C [Example 42, 3-cyclopropyl-4-(4-ethylsulfonyl-3-methyl-phenyl)-1H-pyrazolo[3,4-c]pyridine-5-carbonitrile] | < 0.013 µM
Cc1cc(-c2c(C#N)ncc3[nH]nc(C4CC4)c23)ccc1S(=O)(=O)C1CC1 [Example 43, 3-cyclopropvl-4-(4-cyclopropylsulfonyl-3-methyl-phenyl)-1H-pyrazolo[3,4-c]pyridine-5-carbonitrile] | < 0.013 µM
Cc1cc(-c2c(S(C)(=O)=O)ccc3[nH]nc(C(F)(F)F)c23)ccc1S(C)(=O)=O [Example 44, 4-(3-methyl-4-(methylsulfonyl)phenyl)-5-(methylsulfonyl)-3-(trifluoromethyl)-1H-indazole] | 0.017 µM
Cc1cc(-c2c(C#N)ccc3[nH]cc(C4CC4)c23)ccc1S(C)(=O)=O [Example 45, 3-cyclopropyl-4-(3-methyl-4-methylsulfonylphenyl)-1H-indole-5-carbonitrile] | 0.02 µM
CNC(=O)c1ncc2[nH]nc(C3CC3)c2c1-c1ccc(S(=O)(=O)C2CC2)c(C)c1 [Example 46, 3-cyclopropyl-4-(4-cyclopropylsulfonyl-3-methyl-phenyl)-N-methyl-1H-pyrazolo[3,4-c]pyridine-5-carboxamide] | < 0.013 µM
Cc1cc(-c2c(C#N)ncc3[nH]nc(C4CC4)c23)c(F)cc1S(C)(=O)=O [Example 47, 3-cyclopropyl-4-(2-fluoro-5-methyl-4-methylsulfonyl-phenyl)-1H-pyrazolo[3,4-c]pyridine-5-carbonitrile] | 0.017 µM
CN(C)S(=O)(=O)c1ccc(-c2nccc3[nH]nc(OC(F)F)c23)cc1C(F)F [Example 48, 4-[3-(difluoromethoxy)-1H-pyrazolo[4,3-c]pyridin-4-yl]-2-(difluoromethvl)-N,N-dimethyl-benzenesulfonamide] | 0.13 µM
Cc1cc(-c2c(C#N)ncc3[nH]nc(C4CC4)c23)ccc1S(=O)(=O)C(F)F [Example 50, 3-cyclopropyl-4-[4-(difluoromethylsulfonyl)-3-methyl-phenyl]-1H-pyrazolo[3,4-c]pyridine-5-carbonitrile] | < 0.013 µM
CNC(=O)c1ncc2[nH]nc(C3CC3)c2c1-c1ccc(S(C)(=O)=O)c(C(F)F)c1 [Example 51, 3-cyclopropyl-4-[3-(difluoromethyl)-4-methylsulfonyl-phenyl]-N-methyl-1H-pyrazolo[3,4-c]pyridine-5-carboxamide] | < 0.013 µM
Cc1cc(-c2c(C#N)ncc3[nH]nc(OC(F)F)c23)ccc1S(C)(=O)=O [Example 52, 3-(difluoromethoxy)-4-(3-methyl-4-methylsulfonyl-phenyl)-1H-pyrazolo[3,4-c]pyridine-5-carbonitrile] | < 0.013 µM

SMILES | IC50
Cc1cc([S+](C)[O-])c(C(F)F)cc1-c1c(C#N)ncc2[nH]nc(OC(F)F)c12 (stereo not drawn) [Example 53, 3-(difluoromethoxy)-4-[5-(difluoromethyl)-2-methyl-4-methylsulfinyl-phenyl]-1H-pyrazolo[3,4-c]pyridine-5-carbonitrile] | 0.062 µM
COc1ncc2[nH]nc(C(F)(F)F)c2c1-c1ccc(S(C)(=O)=O)c(C(F)F)c1 [Example 54, 4-[3-(difluoromethyl)-4-methylsulfonyl-phenyl]-5-methoxy-3-(trifluoromethyl)-1H-pyrazolo[3,4-c]pyridine] | 0.015 µM
Cc1cc(-c2c(S(C)(=O)=O)ccc3[nH]nc(OC(F)F)c23)ccc1S(=O)(=O)C1CC1 [Example 55, 4-(4-cyclopropylsulfonyl-3-methyl-phenyl)-3-(difluoromethoxy)-5-methylsulfonyl-1H-indazole] | < 0.013 µM
Cc1cc(-c2nccc3[nH]nc(Br)c23)ccc1S(C)(=O)=O [Example 56, 3-bromo-4-(3-methyl-4-(methylsulfonyl)phenyl)-1H-pyrazolo[4,3-c]pyridine] | 0.19 µM
Cc1cc(-c2nccc3[nH]nc(OC(F)F)c23)ccc1S(C)(=O)=O [Example 57, 3-(difluoromethoxy)-4-(3-methyl-4-(methylsulfonyl)phenyl)-1H-pyrazolo[4,3-c]pyridinepyridine] | < 0.013 µM
COc1n[nH]c2ccnc(-c3ccc(S(C)(=O)=O)c(C)c3)c12 [Example 58, 3-methoxy-4-(3-methyl-4-(methylsulfonyl)phenyl)-1H-pyrazolo[4,3-c]pyridine] | 0.24 µM
CS(=O)(=O)c1ccc(-c2nccc3[nH]nc(C4CC4)c23)cc1N [Example 59, 5-(3-cyclopropyl-1H-pyrazolo[4,3-c]pyridin-4-yl)-2-(methylsulfonyl)aniline] | 0.26 µM
Cc1cc(-c2nccc3[nH]nc(S(C)(=O)=O)c23)ccc1S(C)(=O)=O [Example 60, 4-(3-methyl-4-(methylsulfonyl)phenyl)-3-(methylsulfonyl)-1H-pyrazolo[4,3-c]pyridine] | 0.29 µM
Cc1cc(-c2nccc3[nH]nc(C#N)c23)ccc1S(C)(=O)=O [Example 61, 4-(3-methyl-4-(methylsulfonyl)phenyl)-1H-pyrazolo[4,3-c]pyridine-3-carbonitrile] | 0.25 µM
Cc1cc(-c2c(C(=O)O)ncc3[nH]nc(C4CC4)c23)ccc1S(C)(=O)=O [Example 62, 3-cyclopropyl-4-(3-methyl-4-(methylsulfonyl)phenyl)-1H-pyrazolo[3,4-c]pyridine-5-carboxylic acid] | < 0.013 µM
Cc1cc(-c2c(C#N)ccc3[nH]nc(C4CC4)c23)ccc1S(C)(=O)=O [Example 63, 3-cyclopropyl-4-(3-methyl-4-methylsulfonylphenyl)-1H-indazole-5-carbonitrile] | < 0.013 µM
Cc1cc(-c2ncc(O)c3[nH]nc(C4CC4)c23)ccc1S(C)(=O)=O [Example 64, 3-cyclopropyl-4-(3-methyl-4-methylsulfonyl-phenyl)-1H-pyrazolo[4,3-c]pyridin-7-ol] | 0.2 µM
Cc1cc(-c2nccc3[nH]nc(-c4ccsc4)c23)ccc1S(C)(=O)=O [Example 65, 4-(3-methyl-4-(methylsulfonyl)phenyl)-3-(thiophen-3-yl)-1H-pyrazolo[4,3-c]pyridine] | 0.52 µM
CCOc1n[nH]c2ccnc(-c3ccc(S(C)(=O)=O)c(C)c3)c12 [Example 66, 3-ethoxy-4-(3-methyl-4-methylsulfonyl-phenyl)-1H-pyrazolo[4,3-c]pyridine] | 0.13 µM
Cc1cc(-c2ncc(F)c3[nH]nc(C4CC4)c23)ccc1S(C)(=O)=O [Example 67, 3-cyclopropyl-7-fluoro-4-(3-methyl-4-methylsulfonyl-phenyl)-1H-pyrazolo[4,3-c]pyridine] | 0.025 µM
COc1n[nH]c2ccc(C#N)c(-c3ccc(S(C)(=O)=O)c(C)c3)c12 [Example 68, 3-methoxy-4-(3-methyl-4-(methylsulfonyl)phenyl)-1H-indazole-5-carbonitrile] | < 0.013 µM
Cc1cc(-c2c(C#N)ccc3[nH]nc(OC(F)F)c23)ccc1S(C)(=O)=O [Example 69, 3-(difluoromethoxy)-4-(3-methyl-4-(methylsulfonyl)phenyl)-1H-indazole-5-carbonitrile] | < 0.013 µM
COc1cc2[nH]nc(C3CC3)c2c(-c2ccc(S(C)(=O)=O)c(C)c2)n1 [Example 70, 3-cyclopropyl-6-methoxy-4-(3-methyl-4-methylsulfonylphenyl)-1H-pyrazolo[4,3-c]pyridine] | 0.061 µM
